Values quoted from earlier work, collected in patent publication US7842730B2, “Medical emulsion of perfluororganic compounds and method for the production thereof” (priority 2004, dated 2010).

Key:
[1] = for Tcritical (critical solution temperature in hexane): Table 1; for Critical solution temperature, (Tcritical): Table 3
[2] = for P, vapor pressure: 37°; for Vapor pressure: 37° C., Table 3
[3] = 37° C.

Molecule | Tcritical (critical solution temperature in hexane) [1] [°C] | Critical solution temperature, (Tcritical) [1] [°C] | P, vapor pressure [2] [mm QS] | Vapor pressure [2] [mm QS] | Oxygen solubility [3] | t1/2 (elimination from the organism) [h]
FC1(F)C(F)(F)C(F)(F)C2(F)C(F)(F)C(F)(F)C(F)(F)C(F)(F)C2(F)C1(F)F (stereo not drawn) [PFD, perfluorodecaline] | 22 | 22 | 12 | 12.7 | 40 ml/100 ml (vol.-%) | ~170
CCCN1CCCCC1C (stereo not drawn) [1-propyl-2-methylpiperidine] | 35 | – | 19 | – | – | –
FC(F)(F)C(F)(F)C(F)(F)C(F)(F)C(F)(F)C(F)(F)C(F)(F)C(F)(F)C(F)(F)C(F)(F)Br [PFDB, Perfluorodecylbromide] | – | 7 | – | 1.5 | – | –
FC(F)(F)C(F)(F)C(F)(F)C(F)(F)C(F)(F)C(F)(F)C(F)(F)C(F)(F)Br [PFOB, perfluorooctylbromide] | – | −20 | – | 10.5 | 53 ml/100 ml (vol.-%) | ~96
perfluoromethylcyclohexylpiperidine [PFMHP] | 38 | 40 | 1 | 2.0 | 40 ml/100 ml (vol.-%) | –

The next lines start with results.

Tcritical (critical solution temperature in hexane) [1] [°C] | Critical solution temperature, (Tcritical) [1] [°C] | P, vapor pressure [2] [mm QS] | Vapor pressure [2] [mm QS] | Molecule | Oxygen solubility [3] | t1/2 (elimination from the organism) [h]
43 | 44 | 17 | 18.0 | FC(F)(F)C(F)(F)C(F)(F)N(C(F)(F)C(F)(F)C(F)(F)F)C(F)(F)C(F)(F)C(F)(F)F [PFTPA, perfluorotripropylamine] | 45 ml/100 ml (vol.-%) | –
24 | – | 2 | – | C1CC2CCCC3CCC(C1)C23 (stereo not drawn) [decahydroacenaphthene] | – | –
59 | – | 2 | – | CCCCCCOCCCCCC [dihexylether] | – | –
13 | – | 33 | – | C1CCC2CCCC2C1 (stereo not drawn) [bicyclo[4.3.0]nonane] | – | –
